Earlier results in patent publication US20230066280A1, “DRUG ELUTING BIOMATERIALS” (UCL BUSINESS LTD, priority 2020, published 2023).

Legend:
Rho = conditions: SY5YAPP, HEK 293 and PC12 cells (ref 30)

SMILES	initial loaded drug released within 24 hours (ibuprofen from EVA, previous study (ref 24)) [%]	release rate of ibuprofen from MSN (mesoporous silica nanoparticles, previous studies (ref 20)) [%]	levels of active Rho-GTP (Rho)
CC(C)Cc1ccc(C(C)C(=O)O)cc1 (stereo not drawn) [ibuprofen]	50	96.3	
CSc1ccc(/C=C2/C(C)=C(CC(=O)O)c3cc(F)ccc32)cc1 [sulindac sulfide]			reduced
